Reference: patent publication US9289400B2, “D3 dopamine receptor agonists to treat dyskinesia in parkinson's disease” (priority 2010, dated 2016)
pEC50: −log10 of the molar value. Where “and” joins values, the source holds several entries; their conditions need not be identical. Identical values can stand only once. Entries after “also recorded” stand apart in the source; their conditions may differ. Like-named read-outs stand apart in the source and are kept apart here. Marks after values point to notes of the source that are not given here.

Legend:
[1] = biological target: T1, D4.2 dopamine receptor (Homo sapiens (Human), UniProt P21917, DEL265-296); type: cell-based
T1 sequence (P21917 other isoform, or with tags, fused parts or gaps del 265-296): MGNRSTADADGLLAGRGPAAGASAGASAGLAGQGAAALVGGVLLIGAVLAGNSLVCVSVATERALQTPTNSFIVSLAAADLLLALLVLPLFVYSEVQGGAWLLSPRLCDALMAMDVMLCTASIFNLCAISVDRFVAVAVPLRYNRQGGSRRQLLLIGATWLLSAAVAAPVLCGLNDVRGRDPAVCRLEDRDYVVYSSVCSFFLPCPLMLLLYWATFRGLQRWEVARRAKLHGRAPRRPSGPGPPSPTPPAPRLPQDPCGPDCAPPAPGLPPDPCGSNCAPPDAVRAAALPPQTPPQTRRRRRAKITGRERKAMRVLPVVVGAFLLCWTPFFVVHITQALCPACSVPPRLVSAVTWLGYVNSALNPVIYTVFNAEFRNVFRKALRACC
Experimental: The EC50 values for each receptor subtype is determined by fitting the data points using the Hill equation.
(§1) AtT-20 mouse pituitary cells were grown in Ham's F10 medium with 5% FBS, 10% heat-inactivated horse serum, 2 mM glutamine and 50 μg/ml gentamicin (Invitrogen, Carlsbad, Calif.). AtT-20 cells stabling expressing the human D2S, D2L, D3, and D4.2 and receptor were maintained in the above F10 culture media supplemented with 500 μg/ml G418 (Invitrogen). For electrophysiological characterization, cells were plated onto glass coverslips coated with 40 μg/ml poly L-lysine (Sigma-Aldrich). […] Physiol. […] Neurosci. […] Biophys. […] Neurosci.
Drug solutions were delivered to cells via a multi-barreled micropipette array. The current responses were normalized to the cell capacitance, to account for variation in cell size.
(§2) To compare the functional effects of the new class of D3 receptor agonists, PBZI (Table 2) and ES609 (Table 3) were tested on AtT-20 cells stably expressing human D3, D2S, D2L or D4.2.

[2] = test system: intrastriatal 6-OHDA lesioned rats; assay: Levodopa-induced dyskinesia (AIMs score) in intrastriatal 6-OHDA lesioned rats; type: in vivo, rat; conditions: PBZI 17 mg/kg sc; for effect on levodopa-induced dyskinesia (AIMs score): given 10 minutes before 6 mg/kg levodopa, ES609 20 mg/kg
Experimental: In particular, rats in which unilateral intrastriatal lesion is induced by injection of 6-OHDA (7 μg) at three different sites in the ventrolateral striatum are used. The coordinates for the three injection sites are, in mm: injection site 1: AP: +1.0; ML: −3.0; DV: −5.0; injection site 2: AP: −0.1; ML: −3.7; DV: −5.0; injection site 3: AP: −1.2; ML: −4.5; DV: −5.0. Anterior-posterior (AP) and mediolateral (ML) coordinates are from bregma. The dorso-ventral (DV) coordinates are from dura. The toothbar location is 0.
Seven and half weeks after the lesion, chronic levodopa treatment (6 mg/kg, single dose per day given with 15 mg/kg benserazide) is initiated. Stepping test and AIMs scores are determined on day 1, 8, 10, 17 and 24 after the initiation of chronic levodopa treatment. […] AIMs are scored using a rating scale based on frequency and severity of the dyskinetic symptoms. It should be noted that the rank order of the various AIMs components in terms of frequency and severity in the rat model is: limb>orolingual=axial>>locomotor. This lesion model has been used to test the effect of PBZI on LID (Example 3).
FIG. 13A illustrates the effect of control, PD128907 (a tolerance inducing D2/D3 agonist) and PBZI (a non tolerance inducing D3/D3 agonist) on the total AIMs score (includes locomotor, axial, limb and orolingual) over time of a day 17 (chronic L-DOPA phase) lesioned animal.

[3] = biological target: T1, D4.2 dopamine receptor; assay: cell-based; type: cell-based
Experimental: (§3) The ability of the lead compound to dose-dependently decrease forskolin-induced cAMP levels is measured. The IC50 values for each receptor subtype is determined by fitting the data points using the Hill equation.
as §1
(§4) The cAMP levels in each treated sample were assayed in triplicate and the entire experiment repeated three independent times.
as §2

[4] = biological target: D2L dopamine receptor (Homo sapiens (Human), UniProt P14416); assay: cell-based; type: cell-based
Sequence of D2L dopamine receptor (P14416 whole entry): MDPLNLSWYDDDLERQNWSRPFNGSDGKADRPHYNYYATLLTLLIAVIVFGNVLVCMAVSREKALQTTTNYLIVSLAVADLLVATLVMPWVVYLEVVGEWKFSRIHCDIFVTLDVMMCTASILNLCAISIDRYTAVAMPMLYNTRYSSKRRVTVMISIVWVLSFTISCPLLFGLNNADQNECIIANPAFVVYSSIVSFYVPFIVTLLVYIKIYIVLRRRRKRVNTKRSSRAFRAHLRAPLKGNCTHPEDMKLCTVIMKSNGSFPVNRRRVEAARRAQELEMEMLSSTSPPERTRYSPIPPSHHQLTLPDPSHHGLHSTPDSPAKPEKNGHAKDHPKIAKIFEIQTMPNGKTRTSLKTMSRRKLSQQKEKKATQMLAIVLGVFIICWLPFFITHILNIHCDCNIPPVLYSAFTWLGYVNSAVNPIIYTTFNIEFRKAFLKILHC
Experimental: as §3, §1, §4, §2

[5] = biological target: D3 dopamine receptor (Homo sapiens (Human), UniProt P35462); assay: GIRK channel activation, whole cell voltage clamp, AtT-20 cells stably expressing D3; type: cell-based; conditions: for specificity of agonist effect (eticlopride pretreatment / parental cells): D2/D3 antagonist eticlopride (100 nM); for GIRK channel activation: agonist type / pEC50: D3; for GIRK channel activation: agonist type: versus full agonist quinpirole; for pEC50: GIRK channel activation EC50, AtT-20 cells
Sequence of D3 dopamine receptor (P35462 other isoform, or with tags, fused parts or gaps): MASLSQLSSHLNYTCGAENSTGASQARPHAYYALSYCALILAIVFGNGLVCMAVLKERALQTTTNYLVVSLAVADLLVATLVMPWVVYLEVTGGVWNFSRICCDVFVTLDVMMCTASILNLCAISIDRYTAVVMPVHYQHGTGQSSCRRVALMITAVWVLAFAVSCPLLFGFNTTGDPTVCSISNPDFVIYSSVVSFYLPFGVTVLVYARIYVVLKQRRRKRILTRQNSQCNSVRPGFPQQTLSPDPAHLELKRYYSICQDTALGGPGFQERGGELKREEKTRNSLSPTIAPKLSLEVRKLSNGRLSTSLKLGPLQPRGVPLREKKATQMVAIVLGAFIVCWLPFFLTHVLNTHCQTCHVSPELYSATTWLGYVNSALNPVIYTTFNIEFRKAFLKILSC
Experimental: The activation of the GIRK channels was measured electrophysiologically using whole cell voltage clamp recording (Kuzhikandathil et al., 2004, Mol. Cell. Neurosci. 26:144-155). […]. The adenylyl cyclase inhibition was determined using a commercially available ELISA assay (Westrich & Kuzhikandathil, 2007, Biochim. Biophys. Acta-Mol. Cell. Res. 1773:1747-1758).
. In the initial screen, the ability of 300 nM lead compound to activate G-protein coupled inward rectifier potassium (GIRK) channels (FIG. 1) is measured using whole cell voltage clamp recording. The protocol has been previously used for performing whole cell voltage clamp and measuring agonist-induced GIRK response. […]. The EC50 values for each receptor subtype is determined by fitting the data points using the Hill equation.
AtT-20 mouse pituitary cells were grown in Ham's F10 medium with 5% FBS, 10% heat-inactivated horse serum, 2 mM glutamine and 50 μg/ml gentamicin (Invitrogen, Carlsbad, Calif.). AtT-20 cells stabling expressing the human D2S, D2L, D3, and D4.2 and receptor were maintained in the above F10 culture media supplemented with 500 μg/ml G418 (Invitrogen). For electrophysiological characterization, cells were plated onto glass coverslips coated with 40 μg/ml poly L-lysine (Sigma-Aldrich). […]. Physiol. 115:697-706; Kuzhikandathil et al., 1998, Mol. Cell. Neurosci. 12:390-402; Kuzhikandathil & Bartoszyk, 2006, Neuropharm. 51:873-884; Westrich & Kuzhikandathil, 2007, Biochim. Biophys. Acta-MCR 1773:1747-1758; Kuzhikandathil et al., 2004, Mol. Cell. Neurosci. 26:144-155; Westrich et al., 2010, Biochem. Pharmacol. 79:897-907).
Agonist-activated currents were measured by the whole-cell patch clamp technique in voltage clamp and current clamp mode as described previously (Kuzhikandathil & Oxford, 2000, J. Gen. Physiol. 115:697-706; Kuzhikandathil et al., 1998, Mol. Cell. Neurosci. 12:390-402; Kuzhikandathil & Bartoszyk, 2006, Neuropharm. 51:873-884; Westrich & Kuzhikandathil, 2007, Biochim. Biophys. Acta-MCR 1773:1747-1758; Kuzhikandathil et al., 2004, Mol. Cell. Neurosci. 26:144-155; Westrich et al., 2010, Biochem. Pharmacol. 79:897-907). Drug solutions were delivered to cells via a multi-barreled micropipette array. The current responses were normalized to the cell capacitance, to account for variation in cell size.
To compare the functional effects of the new class of D3 receptor agonists, PBZI (Table 2) and ES609 (Table 3) were tested on AtT-20 cells stably expressing human D3, D2S, D2L or D4.2. […]. The EC50 values of PBZI and ES609 for inhibiting adenylyl cyclase and activating GIRK channels were in the range of 0.2 nM to 30 nM for D3 receptors. […]. […]

## CC(N)CCc1ccccc1Cl (centres unmarked) [ES609]
[1]
  GIRK channel activation: agonist type: elicited no response
[1]; AtT-20 cells, D4.2
  GIRK channel activation EC50: No response
[1]; D4.2, 300 nM
  GIRK channel activation Ratio of ES609 to quinpirole response (at 300 nM): 0^††
  GIRK response at 300 nM: ^††300 nM ES609 elicits no GIRK response; but, 300 nM quinpirole elicits a full GIRK response.
[1]; listed as ES0609
  GIRK channel activation: agonist type: no response
[2]
  effect on levodopa-induced dyskinesia (AIMs score): improve levodopa-induced dyskinesia
[3]
  Adenylyl cyclase inhibition: agonist type: partial agonist
[3]; AtT-20 cells, D4.2, read-out: Adenylyl cyclase inhibition EC50
  pEC50: 9.09
[3]; D4.2, 300 nM
  Adenylyl cyclase inhibition Ratio of ES609 to quinpirole response (at 300 nM): 0.60*
[3]; listed as ES0609
  Adenylyl cyclase inhibition: agonist type: Partial
[4]
  Adenylyl cyclase inhibition: agonist type: did not elicit any response
[4]; AtT-20 cells, D2L
  Adenylyl cyclase inhibition EC50: No response
[4]; D2L, 300 nM
  Adenylyl cyclase inhibition Ratio of ES609 to quinpirole response (at 300 nM): 0^†
  adenylyl cyclase inhibition at 300 nM: ^†no adenylyl cyclase inhibition in the presence of 300 nM ES609; but 300 nM quinpirole elicits ~80% inhibition.
[4]; listed as ES0609
  Adenylyl cyclase inhibition: agonist type: No response
[5]
  specificity of agonist effect (eticlopride pretreatment / parental cells): blocked by pretreatment with the antagonist, eticlopride
  GIRK channel activation: agonist type: full agonist
  pEC50: 7.52
[5]; D3, 300 nM
  GIRK channel activation Ratio of ES609 to quinpirole response (at 300 nM): 0.86
[5]; listed as ES0609
  GIRK channel activation: agonist type: Full

## CCCN1CC[C@@H]2c3cc(O)ccc3CC[C@@H]21 [PBZI, (3aS,9bR)-3-propyl-1,2,3a,4,5,9b-hexahydrobenzo[e]indol-8-ol]
[1]
  GIRK channel activation: agonist type: partial agonist
[1]; D4.2, 300 nM
  GIRK channel activation Ratio of PBZI to quinpirole response (at 300 nM): 0.35*
[2]; PD128907 0.1 mg/kg sc
  dyskinesia induced by the compound itself, before levodopa administration: did not induce dyskinesia
[2]
  effect on levodopa-induced dyskinesia (AIMs score): reduces AIM scores; also recorded: significantly reduced the AIM score; also recorded: delayed the onset of levodopa induced dyskinesia; also recorded: delayed and reduced the dyskinesia induced by levodopa; also recorded: improve levodopa-induced dyskinesia
[3]
  Adenylyl cyclase inhibition: agonist type: elicited no response and no
[3]; AtT-20 cells, D4.2
  Adenylyl cyclase inhibition EC50: No response
[3]; D4.2, 300 nM
  Adenylyl cyclase inhibition Ratio of PBZI to quinpirole response (at 300 nM): 0^†
  adenylyl cyclase inhibition at 300 nM: ^†no adenylyl cyclase inhibition in the presence of 300 nM PBZI; but 300 nM quinpirole elicits ~70% inhibition.
[4]
  Adenylyl cyclase inhibition: agonist type: full agonist and full
[4]; AtT-20 cells, D2L, read-out: Adenylyl cyclase inhibition EC50
  pEC50: 7.17
[4]; D2L, 300 nM
  Adenylyl cyclase inhibition Ratio of PBZI to quinpirole response (at 300 nM): 0.83
[5]
  specificity of agonist effect (eticlopride pretreatment / parental cells): specific for D3 receptors
  GIRK channel activation: agonist type: full agonists and full
  pEC50: 7.52 and 7.54
[5]; D3, 300 nM
  GIRK channel activation Ratio of PBZI to quinpirole response (at 300 nM): 1.3
